Test results published in patent publication US5512574A, “Quinuclidine and azabicyclo 2.2.1! heptane pyrazinyl ethers as muscarinic agonists” (American Home Products Corporation, priority 1995, dated 1996).
pEC50, pKi: −log10 of the molar value. Where two headings read alike, the source gives them in different places.

Legend:
m1 muscarinic receptor [1] = biological target: T1, m1 muscarinic receptor (Homo sapiens, UniProt P11229); assay: biochemical; format: binding; details: for Ki: read-out: [3H]QNB Binding Ki(μM) m1
T1 sequence (P11229 1-460): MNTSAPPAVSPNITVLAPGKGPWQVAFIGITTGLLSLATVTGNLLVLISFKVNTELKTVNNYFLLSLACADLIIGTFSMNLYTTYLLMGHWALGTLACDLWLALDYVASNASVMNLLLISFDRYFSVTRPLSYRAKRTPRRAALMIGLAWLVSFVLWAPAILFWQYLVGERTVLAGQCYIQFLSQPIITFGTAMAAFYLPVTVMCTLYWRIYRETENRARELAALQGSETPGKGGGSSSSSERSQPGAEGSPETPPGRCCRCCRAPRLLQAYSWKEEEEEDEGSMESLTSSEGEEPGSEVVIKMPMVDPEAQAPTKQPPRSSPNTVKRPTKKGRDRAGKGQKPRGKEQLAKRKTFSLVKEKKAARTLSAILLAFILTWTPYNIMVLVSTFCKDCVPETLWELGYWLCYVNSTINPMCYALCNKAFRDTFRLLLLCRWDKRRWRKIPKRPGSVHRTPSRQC

m2 muscarinic receptor [2] = biological target: T2, m2 muscarinic receptor (Homo sapiens, UniProt P08172); assay: biochemical; format: binding
T2 sequence (P08172 1-466): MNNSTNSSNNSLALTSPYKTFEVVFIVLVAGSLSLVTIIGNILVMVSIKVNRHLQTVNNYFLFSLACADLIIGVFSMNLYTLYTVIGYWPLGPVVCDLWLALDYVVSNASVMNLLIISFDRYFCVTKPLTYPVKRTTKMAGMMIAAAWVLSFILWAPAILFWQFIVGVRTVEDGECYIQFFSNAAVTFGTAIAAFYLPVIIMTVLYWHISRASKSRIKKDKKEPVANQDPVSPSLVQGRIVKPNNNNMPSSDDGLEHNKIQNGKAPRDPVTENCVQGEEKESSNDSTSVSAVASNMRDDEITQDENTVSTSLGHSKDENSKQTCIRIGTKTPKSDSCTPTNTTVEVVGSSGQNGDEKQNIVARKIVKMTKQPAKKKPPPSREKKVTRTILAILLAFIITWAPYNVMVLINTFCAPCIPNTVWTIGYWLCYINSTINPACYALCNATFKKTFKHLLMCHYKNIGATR

[3] = biological target: T3, M1 acetylcholine receptors (Homo sapiens, UniProt P11229); assay: stimulation of phosphoinositide (PI) hydrolysis in CHO cells expressing M1 acetylcholine receptors; format: cell-based; details: for Emax: CHO, 1 h; for pEC50: read-out: m1 agonism [P.I.] EC50; for m1 CHO @ 30 × Ki % Carbachol / m1 CHO % Carbachol (at Ki): PI hydrolysis, 60 min; for m1 CHO @ 30 × Ki % Carbachol: at 30 × Ki
T3 sequence (P11229 1-460): T1 sequence (P11229 1-460)
Procedure: (§1) The tubes are incubated for one hour at 37° C. The reaction is quenched with chloroform and the phosphatidyl inositols are extracted with methanol and chloroform. Phase separation is assured with the addition of methanol and water followed by centrifugation. The tritiated inositol phosphates are recovered on BioRad AG 1-X8 anion exchange resin in the formate cycle. After washing the resin with water and myo-inositol, the inositol phosphates are eluted with ammonium formate/formic acid, collected and subjected to liquid scintillation spectroscopy.
(§2) Cloned human receptors in CHO cells were used in these studies.

m1 muscarinic receptor [4] = biological target: m1 muscarinic receptor (Homo sapiens, UniProt P11229); assay: biochemical; format: binding
[5] = biological target: M1 acetylcholine receptors (Homo sapiens, UniProt P11229); assay: stimulation of phosphoinositide (PI) hydrolysis in CHO cells expressing M1 acetylcholine receptors; format: cell-based
Procedure: as §1, §2

m2 muscarinic receptor [6] = biological target: T2, m2 muscarinic receptor; assay: m2 agonism (cAMP) / functional selectivity; format: cell-based; details: for pEC50: cAMP, m2; for Functional Selectivity-m2/m1: ratio of m2 (cAMP) EC50 to m1 (PI) EC50
Source text: Such diseases include presenile and senile dementia (also known as Alzheimer's Disease and Senile Dementia of the Alzheimer Type, respectively), Huntington's Chorea, Tardive Dyskinesia, Hyperkinesia, Mania and Tourette's Syndrome. Alzheimer's Disease is a slowly progressive neurological disorder characterized by deficits in cognitive function including memory, attention, language and visual perception capabilities.
as §2

[7] = m1, cloned human receptors in CHO cells
[8] = read-out: [3H]QNB Binding Ki(μM) m2
[9] = read-out: m1 CHO @ 30 × Ki % Carbachol, PI hydrolysis, m1 CHO, at 30 × Ki, percentage of mean carbachol value
[10] = m2, cloned human receptors in CHO cells, read-out: [3H]QNB Binding Ki(μM) m2
[11] = read-out: m1 CHO % Carbachol (at Ki), PI hydrolysis, m1 CHO, at Ki, percentage of mean carbachol value
[12] = read-out: m1 CHO @ 30 × Ki % Carbachol
[13] = percentage of mean carbachol value
[14] = read-out: m1 CHO % Carbachol (at Ki)

Molecule `CCCCCCOc1nccnc1O[C@H]1CN2CC[C@@H]1C2` (relative stereo) [Example 1, (±)-(endo)-3-(3-Hexyloxy-pyrazin-2-yloxy)-1-aza-bicyclo 2.2.1!heptane] has a Ki (m1 muscarinic receptor [1]; [7]) of 0.03 µM, a Ki (m2 muscarinic receptor [2]; [8]) of 0.02 µM and an Emax [3, 9] of 102%.
`CCCCCCSc1nccnc1O[C@H]1CN2CC[C@@H]1C2` (relative stereo) [Example 2, (endo)-3-(3-Hexylsulfanyl-pyrazin-2-yloxy)-1-aza-bicyclo 2.2.1!heptane] was tested, and the Ki (m1 muscarinic receptor [1]; [7]) was 0.0067 µM, the Ki (m2 muscarinic receptor [2]; [10]) was 0.013 µM and the Emax [3, 9] was 97.1%.
Work on `CCCCCCSc1nccnc1O[C@@H]1CN2CC[C@@H]1C2` (relative stereo) [Example 6, (exo)-3-(3-Hexylsulfanyl-pyrazin-2-yloxy)-1-azabicyclo 2.2.1!heptane] yielded a Ki (m1 muscarinic receptor [1]; [7]) of 0.123 µM, a Ki (m2 muscarinic receptor [2]; [10]) of 0.088 µM and an Emax [3, 11] of 104%.
Molecule `CCCCCCOc1nccnc1S[C@@H]1CN2CC[C@@H]1C2` (relative stereo) [Example 11, (exo)-3-(3-Hexyloxy-pyrazin-2-ylsulfanyl)-1-azabicyclo 2.2.1!heptane] has a Ki (m1 muscarinic receptor [1]; [7]) of 0.292 µM and an Emax [3, 11] of 41.6%.
Molecule `CCCCCCSc1nccnc1S[C@@H]1CN2CC[C@@H]1C2` (relative stereo) [Example 12, (exo)-3-(3-Hexylsulfanyl-pyrazin-2-ylsulfanyl)-1-azabicyclo-2.2.1!heptane] has a Ki (m1 muscarinic receptor [1]) of 0.03 µM, a Ki (m2 muscarinic receptor [2]; [8]) of 0.064 µM and an Emax [3, 12] of 62%.
With `CCCCCCOc1nccnc1O[C@H]1CN2CC[C@@H]1C2` (single isomer, unassigned) the pKi (m1 muscarinic receptor [4]) was 7.49 and the pEC50 [5] was 8.26.
`CCCCCCSc1nccnc1O[C@H]1CN2CC[C@@H]1C2` (single isomer, unassigned) [2(+), (+)-(endo)-3-(3-hexylsulfanyl-pyrazin-2-yloxy)-1-aza-bicyclo 2.2.1!heptane] was tested, and the Ki (m1 muscarinic receptor [1]; [7]) was 0.027 µM, the Ki (m2 muscarinic receptor [2]; [10]) was 0.063 µM and the Emax [3, 9] was 31.1%.
`CCCCCCSc1nccnc1O[C@H]1CN2CC[C@@H]1C2` (single isomer, unassigned) [Example 2(-), (-)-(endo)-3-(3-hexylsulfanyl-pyrazin-2-yloxy)-1-aza-bicyclo 2.2.1!heptane] gave a Ki (m2 muscarinic receptor [2]; [10]) of 0.0045 µM, an Emax [3, 11] of 46.5% and a pEC50 [3] of 9.40. The pEC50 (m2 muscarinic receptor [6]) was 7.80 and the “Functional Selectivity-m2/m1” value (m2 muscarinic receptor [6]) was 40.
In the case of `CCCCCCOc1nccnc1O[C@H]1CN2CC[C@@H]1C2` (single isomer, unassigned) [Example 4], the Ki (m2 muscarinic receptor [2]; [8]) was 0.024 µM.
For `CCCCCCOc1nccnc1O[C@H]1CN2CC[C@@H]1C2` (single isomer, unassigned) [Example 5, (+)-endo-3-(3-Hexyloxy-pyrazin-2-yloxy)-1-azabicyclo 2.2.1!heptane], the Ki (m1 muscarinic receptor [1]; [7]) was 0.083 µM, the Ki (m2 muscarinic receptor [2]; [8]) was 0.071 µM and the “m1 CHO @ 30 × Ki % Carbachol” value [3, 13] was 51%.
In the case of `CCCCCCSc1nccnc1O[C@@H]1CN2CC[C@@H]1C2` (single isomer, unassigned) [Example 7, (+)-exo-3-(3-Hexylsulfanyl-pyrazin-2-yloxy)-1-azabicyclo 2.2.1!heptane], the Ki (m2 muscarinic receptor [2]; [10]) was 0.059 µM, the “m1 CHO % Carbachol (at Ki)” value [3, 13] was 107.3% and the pEC50 [3] was 7.99. For the same molecule, the pEC50 (m2 muscarinic receptor [6]) was 5.62 and the “Functional Selectivity-m2/m1” value (m2 muscarinic receptor [6]) was 240.
`CCCCCCSc1nccnc1O[C@@H]1CN2CC[C@@H]1C2` (single isomer, unassigned) [Example 8, (-)-(exo)-3-(3-Hexylsulfanyl-pyrazin-2-yloxy)-1-azabicyclo 2.2.1!heptane] was tested, and the Ki (m2 muscarinic receptor [2]; [10]) was 0.008 µM and the “m1 CHO % Carbachol (at Ki)” value [3, 13] was 44.2%.
With `CCCCCCOc1nccnc1O[C@@H]1CN2CC[C@@H]1C2` (single isomer, unassigned) [Example 9, (-)-(exo)-3-(3-Hexyloxy-pyrazin-2-yloxy)-1-azabicyclo 2.2.1!heptane] the Ki (m2 muscarinic receptor [2]; [8]) was 0.774 µM and the “m1 CHO @ 30 × Ki % Carbachol” value [3, 13] was 56%.
`CCCCCCOc1nccnc1O[C@@H]1CN2CC[C@@H]1C2` (single isomer, unassigned) [Example 10, (+)-(exo)-3-(3-Hexyloxy-pyrazin-2-yloxy)-1-azabicyclo 2.2.1!heptane] was tested, and the Ki (m2 muscarinic receptor [2]; [8]) was 0.149 µM and the “m1 CHO @ 30 × Ki % Carbachol” value [3, 13] was 9%.
For `CCCCCCSc1nccnc1SC1CN2CCC1CC2` (stereo not shown) [Example 13, 3-(3-Hexylsulfanyl-pyrazin-2-ylsulfanyl)-1-azabicyclo 2.2.2!octane], the pKi (m1 muscarinic receptor [1]) was 7.54 and the Emax [3, 12] was 45.9%.
Molecule `CCCCCCOc1nccnc1SC1CN2CCC1CC2` (stereo not shown) [Example 14, 3-(3-Hexyloxy-pyrazin-2-ylsulfanyl)-1-azabicyclo 2.2.2!octane] has a pKi (m1 muscarinic receptor [1]) of 7.12 and an Emax [3, 14] of 29.5%.
With `CCCCCCOc1nccnc1OC1CN2CCC1CC2` (stereo not shown) [Example 15] the pKi (m1 muscarinic receptor [1]) was 6.85, the Ki (m2 muscarinic receptor [2]; [3H]QNB Binding Ki(μM) m2, m2, cloned human receptors in CHO cells) was 0.124 µM and the Emax [3, 14] was 59.6%.
